# Data as given in ChEMBL document CHEMBL4420062, “Tfpi inhibitors and methods of use” (2013).
# Where a SMILES comes first, the peptide text is derived from it. [ ]: non-standard residue; d: D form. The star is where a group is joined. Tle = CC(C)(C)[C@H](N)C(=O)O; Hexanoyl = CCCCCC(=O)*; Aib = CC(C)(N)C(=O)O; Acm = CC(=O)NC*
# Tests used:
# [1] = biological target: T1, Tissue factor pathway inhibitor (Homo sapiens, UniProt P10646); assay: Binding affinity to TFPI (unknown origin) incubated for […] using tracer peptide JBT0131 by screening ELISA
# T1 sequence (P10646 whole entry): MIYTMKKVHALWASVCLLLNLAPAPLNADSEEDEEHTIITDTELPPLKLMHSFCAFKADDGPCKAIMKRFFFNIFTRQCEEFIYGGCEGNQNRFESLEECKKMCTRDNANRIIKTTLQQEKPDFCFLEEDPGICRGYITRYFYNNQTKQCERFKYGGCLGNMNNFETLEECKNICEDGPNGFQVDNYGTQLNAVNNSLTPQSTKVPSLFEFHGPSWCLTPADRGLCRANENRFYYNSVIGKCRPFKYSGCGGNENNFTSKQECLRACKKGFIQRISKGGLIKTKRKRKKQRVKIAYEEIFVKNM
# [2] = Stability in human plasma assessed as parent compound remaining after 24 hrs; format: ADME, cell-free; settings: read-out: Stability
Compound,IC50 [1] [µM],remaining at 24 h [2] [%]
Ac-FQSDKNVFVFGYFERLRAKL-NH2,> 5,
Ac-FQSKKNVFGFGYFERLRAKL-NH2,> 5,
Ac-FQSKKNVFVFGDFERLRAKL-NH2,> 5,
Ac-FQFKKNVFVFGYFERLRAKL-NH2,> 5,
Ac-FQSKKNVFVFGGFERLRAKL-NH2,> 5,
Ac-FQSKKNVFLFGYFERLRAKL-NH2,> 5,
CC(=O)N[C@@H](Cc1ccccc1)C(=O)N[C@@H](CCC(N)=O)C(=O)N[C@@H](CO)C(=O)N[C@@H](CCCCN)C(=O)NCC(=O)N[C@@H](CC(N)=O)C(=O)N[C@H](C(=O)N[C@@H](Cc1ccccc1)C(=O)N[C@H](C(=O)N[C@@H](CC(=O)O)C(=O)NCC(=O)N[C@@H](Cc1ccc(O)cc1)C(=O)N[C@@H](Cc1ccccc1)C(=O)N[C@@H](CCC(=O)O)C(=O)N[C@@H](CCCNC(=N)N)C(=O)N[C@@H](CC(C)C)C(=O)NC(C)(C)C(=O)N[C@@H](C)C(=O)NC(C)(C)C(=O)N[C@@H](CC(C)C)C(N)=O)C(C)C)C(C)C (Ac-FQSKGNVFVDGYFERL[Aib]A[Aib]L-NH2),> 5,
Ac-FQSKKFVFVFGYFERLRAKL-NH2,> 5,
CCCCCC(=O)N[C@@H](Cc1ccccc1)C(=O)N[C@@H](CCC(N)=O)C(=O)N[C@@H](CO)C(=O)N[C@@H](CCCCN)C(=O)N1CCC[C@@H]1C(=O)N[C@@H](CSCNC(C)=O)C(=O)N[C@H](C(=O)N[C@@H](Cc1cnc[nH]1)C(=O)N[C@H](C(=O)N[C@@H](CC(=O)O)C(=O)N[C@H](C)C(=O)N[C@@H](Cc1ccc(O)cc1)C(=O)N[C@@H](Cc1ccccc1)C(=O)N[C@@H](CCC(=O)O)C(=O)N[C@@H](CCCNC(=N)N)C(=O)N[C@@H](CC(C)C)C(=O)NC(C)(C)C(=O)N[C@@H](C)C(=O)N[C@@H](CCCCN)C(=O)N[C@@H](CC(C)C)C(N)=O)C(C)(C)C)C(C)C (Hexanoyl-FQSK[dP]C(Acm)VH[Tle]D[dA]YFERL[Aib]AKL-NH2),,90.1 to 93
CCN1C(=O)CC(SC[C@H](NC(=O)[C@H](CC(C)C)NC(=O)[C@H](CCCCN)NC(=O)[C@H](C)NC(=O)C(C)(C)NC(=O)[C@H](CC(C)C)NC(=O)[C@H](CCCNC(=N)N)NC(=O)[C@H](CCC(=O)O)NC(=O)[C@H](Cc2ccccc2)NC(=O)[C@H](Cc2ccc(O)cc2)NC(=O)CNC(=O)[C@@H](NC(=O)[C@@H](NC(=O)[C@H](Cc2cnc[nH]2)NC(=O)[C@@H](NC(=O)[C@H](CC(N)=O)NC(=O)[C@H]2CCCN2C(=O)[C@H](CCCCN)NC(=O)[C@H](CO)NC(=O)[C@H](CCC(N)=O)NC(=O)[C@H](Cc2ccccc2)NC(C)=O)C(C)C)C(C)C)[C@@H](C)O)C(N)=O)C1=O (some centres undefined),,41.4
CCN1C(=O)CC(SC[C@H](NC(=O)[C@H](CC(C)C)NC(=O)[C@H](CCCCN)NC(=O)[C@H](C)NC(=O)C(C)(C)NC(=O)[C@H](CC(C)C)NC(=O)[C@H](CCCNC(=N)N)NC(=O)[C@H](CCC(=O)O)NC(=O)[C@H](Cc2ccccc2)NC(=O)[C@H](Cc2ccc(O)cc2)NC(=O)CNC(=O)[C@@H]2CCCN2C(=O)[C@@H](NC(=O)[C@H](Cc2cnc[nH]2)NC(=O)[C@@H](NC(=O)[C@H](CC(N)=O)NC(=O)[C@H]2CCCN2C(=O)[C@H](CCCCN)NC(=O)[C@H](CO)NC(=O)[C@H](CCC(N)=O)NC(=O)[C@H](Cc2ccccc2)NC(C)=O)C(C)C)C(C)C)C(N)=O)C1=O (some centres undefined),,58
CCN1C(=O)CC(SC[C@H](NC(=O)[C@H](CC(C)C)NC(=O)[C@H](CCCCN)NC(=O)[C@H](C)NC(=O)C(C)(C)NC(=O)[C@H](CC(C)C)NC(=O)[C@H](CCCNC(=N)N)NC(=O)[C@H](CCC(=O)O)NC(=O)[C@H](Cc2ccccc2)NC(=O)[C@H](Cc2ccc(O)cc2)NC(=O)CNC(=O)[C@@H]2CCCN2C(=O)[C@@H](NC(=O)[C@H](Cc2cnc[nH]2)NC(=O)[C@@H](NC(=O)[C@H](CC(N)=O)NC(=O)[C@H]2CCCN2C(=O)[C@H](CCCCN)NC(=O)[C@H](CO)NC(=O)[C@H](CCC(N)=O)NC(=O)[C@H](Cc2ccccc2)NC(C)=O)C(C)C)C(C)(C)C)C(N)=O)C1=O (some centres undefined),,55.9
CCN1C(=O)CC(SC[C@H](NC(=O)[C@H](CC(C)C)NC(=O)[C@H](CCCCN)NC(=O)[C@H](C)NC(=O)C(C)(C)NC(=O)[C@H](CC(C)C)NC(=O)[C@H](CCCNC(=N)N)NC(=O)[C@H](CCC(=O)O)NC(=O)[C@H](Cc2ccccc2)NC(=O)[C@H](Cc2ccc(O)cc2)NC(=O)CNC(=O)[C@@H](CC(=O)O)NC(=O)[C@@H](NC(=O)[C@H](Cc2cnc[nH]2)NC(=O)[C@@H](NC(=O)[C@H](CS)NC(=O)[C@H]2CCCN2C(=O)[C@H](CCCCN)NC(=O)[C@H](CO)NC(=O)[C@H](CCC(N)=O)NC(=O)[C@H](Cc2ccccc2)NC(C)=O)C(C)C)C(C)C)C(N)=O)C1=O (some centres undefined),,70.9
CC(=O)N[C@@H](Cc1ccccc1)C(=O)N[C@@H](CCC(N)=O)C(=O)N[C@@H](CO)C(=O)N[C@@H](CCCCN)C(=O)N(CC(=O)N[C@@H](CC(N)=O)C(=O)N[C@H](C(=O)N[C@@H](Cc1cnc[nH]1)C(=O)N[C@H](C(=O)N[C@@H](CC(=O)O)C(=O)NCC(=O)N[C@@H](Cc1ccc(O)cc1)C(=O)N[C@@H](Cc1ccccc1)C(=O)N[C@@H](CCC(=O)O)C(=O)N[C@@H](CCCNC(=N)N)C(=O)N[C@@H](CC(C)C)C(=O)NC(C)(C)C(=O)N[C@@H](C)C(=O)N[C@@H](CCCCN)C(=O)N[C@@H](CC(C)C)C(N)=O)C(C)C)C(C)C)C1CCCCC1,,17.4

# The next lines start with results.
IC50 [1] [µM],Compound,remaining at 24 h [2] [%]
1 to 5,Ac-FLSKKNVFVFGYFERLRAKL-NH2,
> 5,Ac-FQSKKNVFVFLYFERLRAKL-NH2,
> 5,Ac-FQSKKNVFVFGYFERFRAKL-NH2,
0.556 to 1.67,CC(=O)N[C@H](CC(C)C)C(=O)N[C@H](CCCCN)C(=O)N[C@H](C)C(=O)N[C@H](CCCNC(=N)N)C(=O)N[C@H](CC(C)C)C(=O)N[C@H](CCCNC(=N)N)C(=O)N[C@H](CCC(=O)O)C(=O)N[C@H](Cc1ccccc1)C(=O)N[C@H](Cc1ccc(O)cc1)C(=O)NCC(=O)N[C@H](Cc1ccccc1)C(=O)N[C@@H](C(=O)N[C@H](Cc1ccccc1)C(=O)N[C@@H](C(=O)N[C@H](CC(N)=O)C(=O)N[C@H](CCCCN)C(=O)N[C@H](CCCCN)C(=O)N[C@H](CO)C(=O)N[C@H](CCC(N)=O)C(=O)N[C@H](Cc1ccccc1)C(N)=O)C(C)C)C(C)C,
> 5,Ac-FQSKKNVFVFGYFERDRAKL-NH2,
> 5,CC(=O)N[C@@H](Cc1ccccc1)C(=O)N[C@@H](CCC(N)=O)C(=O)N[C@@H](CO)C(=O)N[C@@H](CCCCN)C(=O)NCC(=O)N[C@@H](CC(N)=O)C(=O)N[C@H](C(=O)N[C@@H](Cc1ccccc1)C(=O)N[C@H](C(=O)N[C@@H](CC(=O)O)C(=O)NCC(=O)NC(C)(C)C(=O)NC(C)(C)C(=O)N[C@@H](C)C(=O)N[C@@H](CCCCN)C(=O)N[C@@H](CC(C)C)C(N)=O)C(C)C)C(C)C (Ac-FQSKGNVFVDG[Aib][Aib]AKL-NH2),
> 5,Ac-FQSKKNVFVFGYFERLDAKL-NH2,
> 5,Ac-FQSKKNVFVFGFFERLRAKL-NH2,
> 5,Ac-FQSKKNVFVFGYFERLFAKL-NH2,
> 0.5,CCCCCCCCCCCCCC(=O)NCCCC[C@H](NC(=O)[C@@H](NC(=O)[C@H](Cc1cnc[nH]1)NC(=O)[C@@H](NC(=O)[C@H](CO)NC(=O)[C@H]1CCCN1C(=O)[C@H](CCCCN)NC(=O)[C@H](CO)NC(=O)[C@H](CCC(N)=O)NC(=O)[C@H](Cc1ccccc1)NC(=O)CCCCC)C(C)C)C(C)(C)C)C(=O)N[C@H](C)C(=O)N[C@@H](Cc1ccc(O)cc1)C(=O)N[C@@H](Cc1ccccc1)C(=O)N[C@@H](CCC(=O)O)C(=O)N[C@@H](CCCNC(=N)N)C(=O)N[C@@H](CC(C)C)C(=O)NC(C)(C)C(=O)N[C@@H](C)C(=O)N[C@@H](CCCCN)C(=O)N[C@@H](CC(C)C)C(N)=O,
> 5,Ac-FFSKKNVFVFGYFERLRAKL-NH2,
> 1.67,Ac-FQSKLNVFVFGYFERLRAKL-NH2,
< 0.05,Ac-FQSKGNVFVDGYFERLRRKL-NH2,
> 5,Ac-FQSKKNVFVFGYFEGLRAKL-NH2,
> 5,CC(=O)N[C@@H](Cc1ccccc1)C(=O)N[C@@H](CCC(N)=O)C(=O)N[C@@H](CO)C(=O)N[C@@H](CCCCN)C(=O)NCC(=O)N[C@@H](CC(N)=O)C(=O)N[C@H](C(=O)NC(C)(C)C(=O)N[C@H](C(=O)N[C@@H](CC(=O)O)C(=O)NCC(=O)N[C@@H](Cc1ccc(O)cc1)C(=O)N[C@@H](Cc1ccccc1)C(=O)N[C@@H](CCC(=O)O)C(=O)N[C@@H](CCCNC(=N)N)C(=O)N[C@@H](CC(C)C)C(=O)NC(C)(C)C(=O)N[C@@H](C)C(=O)N[C@@H](CCCCN)C(=O)N[C@@H](CC(C)C)C(N)=O)C(C)C)C(C)C (Ac-FQSKGNV[Aib]VDGYFERL[Aib]AKL-NH2),
> 5,Ac-FQSKKNVFVFGLFERLRAKL-NH2,
< 0.05,Ac-FQSKGNVFVDGYFERLRMKL-NH2,
> 0.5,CCCCCCCCCCCCCC(=O)NCCCC[C@H](NC(=O)[C@H]1CCCN1C(=O)[C@H](CCCCN)NC(=O)[C@H](CO)NC(=O)[C@H](CCC(N)=O)NC(=O)[C@H](Cc1ccccc1)NC(=O)CCCCC)C(=O)N[C@H](C(=O)N[C@@H](Cc1cnc[nH]1)C(=O)N[C@H](C(=O)N[C@@H](CC(=O)O)C(=O)N[C@H](C)C(=O)N[C@@H](Cc1ccc(O)cc1)C(=O)N[C@@H](Cc1ccccc1)C(=O)N[C@@H](CCC(=O)O)C(=O)N[C@@H](CCCNC(=N)N)C(=O)N[C@@H](CC(C)C)C(=O)NC(C)(C)C(=O)N[C@@H](C)C(=O)N[C@@H](CCCCN)C(=O)N[C@@H](CC(C)C)C(N)=O)C(C)(C)C)C(C)C,
> 1.67,Ac-FDSKKNVFVFGYFERLRAKL-NH2,
> 0.5,CCCCCCCCCCCCCC(=O)NCCCC[C@H](NC(=O)[C@H](CO)NC(=O)[C@H](CCC(N)=O)NC(=O)[C@H](Cc1ccccc1)NC(=O)CCCCC)C(=O)N1CCC[C@@H]1C(=O)N[C@@H](CO)C(=O)N[C@H](C(=O)N[C@@H](Cc1cnc[nH]1)C(=O)N[C@H](C(=O)N[C@@H](CC(=O)O)C(=O)N[C@H](C)C(=O)N[C@@H](Cc1ccc(O)cc1)C(=O)N[C@@H](Cc1ccccc1)C(=O)N[C@@H](CCC(=O)O)C(=O)N[C@@H](CCCNC(=N)N)C(=O)N[C@@H](CC(C)C)C(=O)NC(C)(C)C(=O)N[C@@H](C)C(=O)N[C@@H](CCCCN)C(=O)N[C@@H](CC(C)C)C(N)=O)C(C)(C)C)C(C)C,
